pIC50: −log10 of the molar value. Like-named read-outs stand apart in the source and are kept apart here. Bounds are passed on as bounds.

The target of test [1] is T1, recombinant human c-Met/HGF receptor (Homo sapiens, UniProt P08581).
T1 construct: His tag (pBlueBacHis2A vector); made in house; host or cells: Hi-5 cells (Trichoplusia ni), baculovirus
Kind of test: In vitro receptor tyrosine kinase assay (DELFIA), c-Met/HGF receptor. The test is classed as biochemical. How it is done: Cell pellets were frozen at −80° C. until purification was performed.
(§1) The coated plates were washed and stored at 4° C. […] After incubation, the kinase reactions were quenched with EDTA and the plates were washed.

Test [2] has as its target T2, VEGF receptor KDR (Homo sapiens, UniProt P35968).
T2 construct: made in house; host or cells: Sf9 cells (Spodoptera frugiperda), baculovirus
The test is described as follows: In vitro receptor tyrosine kinase assay (DELFIA), VEGF receptor KDR. The format is biochemical. On the procedure:
In the case of VEGF receptor KDR a 1.6-kb cDNA corresponding to the catalytic domain of VEGFR2 or KDR (Genbank accession number AF035121 amino acid 806 to 1356) was cloned into the Pst I site of the pDEST20 Gateway vector (Invitrogen) for the production of a GST-tagged version of that enzyme.
The GST-VEGFR2806-1356 protein was expressed in […] (Spodoptera frugiperda) upon infection with recombinant baculovirus construct. […] Cell pellets were frozen at −80° C. until purification was performed.
The supernatant (cell extract) was used as starting material for purification of GST-VEGFR2806-1356.
The supernatant was loaded onto a GST-agarose column (Sigma) equilibrated with PBS pH 7.3. Following a four column volume (CV) wash with PBS pH 7.3+1% Triton X-100 and 4 CV wash with buffer B (50 mM Tris pH 8.0, 20% glycerol and 100 mM NaCl), bound proteins were step eluted with 5 CV of buffer B supplemented with 5 mM DTT and 15 mM glutathion. GST-VEGFR2806-1356 enriched fractions from this chromatography step were pooled based on U.V. trace i.e. fractions with high O.D.280. Final GST-VEGFR2806-1356 protein preparations concentrations were about 0.7 mg/ml with purity approximating 70%.
as §1

Setting [3] is: recombinant c-Met IC, 10 uM ATP, DELFIA, read-out: C-Met (IC50).
Where [4] appears, read: GST-VEGFR2 806-1356, 0.6 uM ATP, DELFIA, read-out: VEGFR (IC50).

T2 sequence (P35968 806-1356): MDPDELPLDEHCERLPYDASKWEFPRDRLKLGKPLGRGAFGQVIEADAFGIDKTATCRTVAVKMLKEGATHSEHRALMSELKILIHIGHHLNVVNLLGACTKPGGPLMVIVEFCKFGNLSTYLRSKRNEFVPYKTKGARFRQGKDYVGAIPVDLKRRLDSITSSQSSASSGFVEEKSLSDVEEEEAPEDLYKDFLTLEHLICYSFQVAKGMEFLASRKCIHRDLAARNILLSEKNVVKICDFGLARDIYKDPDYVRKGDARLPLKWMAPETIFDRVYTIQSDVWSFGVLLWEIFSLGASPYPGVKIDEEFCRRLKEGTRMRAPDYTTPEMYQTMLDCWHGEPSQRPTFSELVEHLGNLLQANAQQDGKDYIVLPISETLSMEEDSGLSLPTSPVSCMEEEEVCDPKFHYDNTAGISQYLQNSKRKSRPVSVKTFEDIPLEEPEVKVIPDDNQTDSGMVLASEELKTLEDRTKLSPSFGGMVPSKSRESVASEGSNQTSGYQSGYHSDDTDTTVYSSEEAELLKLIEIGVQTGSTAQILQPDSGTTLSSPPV
T1 sequence (P08581 1078-1337): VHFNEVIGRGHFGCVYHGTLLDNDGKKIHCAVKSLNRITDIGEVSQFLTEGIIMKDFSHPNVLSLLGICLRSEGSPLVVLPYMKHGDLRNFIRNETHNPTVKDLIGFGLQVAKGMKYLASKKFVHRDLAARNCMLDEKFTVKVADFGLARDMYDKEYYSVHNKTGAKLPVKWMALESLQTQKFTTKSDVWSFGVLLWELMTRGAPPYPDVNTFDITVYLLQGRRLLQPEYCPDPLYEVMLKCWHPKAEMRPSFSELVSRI

As a reminder, the pIC50 is the negative decadic logarithm of the IC50, by convention in mol/L. Take `O=C(CC(=O)Nc1ccc(Oc2ccnc3ccsc23)c(F)c1)Nc1ccccc1` [Compound 5a, N^1-(3-Fluoro-4-(thieno[3,2-b]pyridin-7-yloxy)phenyl)-N^3-phenylmalonamide]: the values for the negative-log IC50 (pIC50) in test [1] (setting [3]) and in test [2] (setting [4]) were 6.57 and 6.70, respectively.
For the compound `CCn1cnc(-c2cc3nccc(Oc4ccc(NC(=O)CC(=O)Nc5ccccc5)cc4F)c3s2)c1` [Compound 5d, N^1-(4-(2-(1-Ethyl-1H-imidazol-4-yl)thieno[3,2-b]pyridin-7-yloxy)-3-fluorophenyl)-N^3-phenylmalonamide], the values for the pIC50 in test [1] and in test [2] (setting [4]) were 7.72 and 8.30, respectively.
With `CN(C)[C@@H]1CCN(C(=O)c2cc3nccc(Oc4ccc(NC(=O)CC(=O)Nc5ccccc5)cc4F)c3s2)C1` [Compound 5g, (R)—N^1-(4-(2-(3-(Dimethylamino)pyrrolidine-1-carbonyl)thieno[3,2-b]pyridin-7-yloxy)-3-fluorophenyl)-N^3-phenylmalonamide], the negative logarithm of the IC50 (pIC50) was 7.19 in test [1] (setting [3]) and 7.05 in test [2] (setting [4]).
The like results for `CCn1cnc(-c2cc3nccc(Oc4ccc(NC(=O)CC(=O)Nc5ccccc5OC)cc4F)c3s2)c1` [Compound 28b, N^1-(4-(2-(1-Ethyl-1H-imidazol-4-yl)thieno[3,2-b]pyridin-7-yloxy)-3-fluorophenyl)-N^3-(2-methoxyphenyl)malonamide] were, in that order, 7.60 and 8.52.
For the compound `CCn1cnc(-c2cc3nccc(Oc4ccc(NC(=O)CC(=O)Nc5ccccc5F)cc4F)c3s2)c1` [Compound 30b, N^1-(4-(2-(1-Ethyl-1H-imidazol-4-yl)thieno[3,2-b]pyridin-7-yloxy)-3-fluorophenyl)-N^3-(2-fluorophenyl)malonamide], in test [1] (setting [3]), the pIC50 was 7.62.
Regarding `CC(C(=O)Nc1ccccc1)C(=O)Nc1ccc(Oc2ccnc3cc(-c4nccn4C)sc23)c(F)c1` (stereo not drawn) [Compound 38, N^1-(3-Fluoro-4-(2-(1-methyl-1H-imidazol-2-yl)thieno[3,2-b]pyridin-7-yloxy)phenyl)-2-methyl-N^3-phenylmalonamide], the values for the negative logarithm of the IC50 (pIC50) in test [1] (setting [3]) and in test [2] (setting [4]) were 7.11 and 8.30, respectively.
The like results for `Cn1cncc1-c1cc2nccc(Oc3ccc(NC(=O)CC(=O)Nc4cccnc4)cc3F)c2s1` [Compound 41, N-{3-Fluoro-4-[2-(3-methyl-3H-imidazol-4-yl)-thieno[3,2-b]pyridin-7-yloxy]-phenyl}-N′-pyridin-3-yl-malonamide] were, in that order, 6.88 and 7.62.
In the same order, the values of `Cn1ccnc1-c1cc2nccc(Oc3ccc(NC(=O)CC(=O)Oc4ccccc4)cc3F)c2s1` [Compound 47, N-{3-Fluoro-4-[2-(1-methyl-1H-imidazol-2-yl)-thieno[3,2-b]pyridin-7-yloxy]-phenyl}-malonamic acid phenyl ester] are 6.76 and 7.85.
With `COc1ccccc1NC(=O)CC(=O)Nc1ccc(Oc2ccnc3cc(-c4ccc(CN5CCCC5)cc4)sc23)c(F)c1` [Compound 48, N^1-(3-Fluoro-4-(2-(4-(pyrrolidin-1-ylmethyl)phenyl)-thieno[3,2-b]pyridin-7-yloxy)phenyl)-N^3-(2-methoxyphenyl)malonamide], the negative-log IC50 (pIC50) in test [1] (setting [3]) was 7.22; in test [2] (setting [4]) it was 7.89.
Take `O=C(CC(=O)Nc1ccc(Oc2ccnc3cc(C(=O)N4CCCC4)sc23)c(F)c1)Nc1ccccc1` [drawing 280]: the pIC50 in test [1] (read-out: CMET IC50) and in test [2] (read-out: VEGFR IC50) was > 7.30 throughout.
Regarding `CCn1cnc(-c2cc3nccc(Oc4ccc(NC(=O)CC(=O)Nc5ccccc5)cc4F)c3s2)c1` [drawing 291], the pIC50 is > 7.30 in test [1] (read-out: CMET IC50) and 6.60 to 7.30 in test [2] (read-out: VEGFR IC50).

The values are drawn from patent US8329726B2, “Inhibitors of VEGF receptor and HGF receptor signaling” (MethylGene Inc., priority 2005, dated 2012).
